{"source": "patent US7169813B2", "about": "“4-oxo-fenretinide, administered alone and in combination with fenretinide, as preventive and therapeutic agent for cancer” (Fondazione IRCCS “Istituto Nazionale Dei Tumori”, priority 2004, dated 2007)", "origin": "cited, not measured here", "key": {"human ovarian carcinoma": {"test_system": "human ovarian carcinoma", "conditions": "mice bearing a human ovarian carcinoma, cited from earlier work"}, "[1]": {"test_system": "different tumor cell lines", "conditions": "cited from earlier work"}}}
{"smiles": "COc1ccc(NC(=O)\\C=C(C)/C=C/C=C(C)\\C=C\\C2=C(C)CCCC2(C)C)cc1", "note": "(stereo in doubt) [4-MPR, N-(4-methoxyphenyl)retinamide]", "values": [{"measurement": "antitumor effect", "setting": "human ovarian carcinoma", "value": "no antitumor effect"}, {"measurement": "effect on 4-HPR activity", "setting": "human ovarian carcinoma; with 4-HPR", "value": "did not increase 4-HPR activity"}, {"measurement": "inhibiting proliferation", "setting": "[1]", "value": "ineffective"}]}
